Paper PMC3414753, “Oleamide activates peroxisome proliferator-activated receptor gamma (PPARγ) in vitro” (2012)

Tests used:
PPARα = target: T1, PPARα (Homo sapiens, UniProt Q07869); assay: LanthaScreen TR-FRET competitive binding assay; displacement incomplete at […]
T1 construct: gene PPARA
T1 sequence (Q07869 196-468 limits assumed): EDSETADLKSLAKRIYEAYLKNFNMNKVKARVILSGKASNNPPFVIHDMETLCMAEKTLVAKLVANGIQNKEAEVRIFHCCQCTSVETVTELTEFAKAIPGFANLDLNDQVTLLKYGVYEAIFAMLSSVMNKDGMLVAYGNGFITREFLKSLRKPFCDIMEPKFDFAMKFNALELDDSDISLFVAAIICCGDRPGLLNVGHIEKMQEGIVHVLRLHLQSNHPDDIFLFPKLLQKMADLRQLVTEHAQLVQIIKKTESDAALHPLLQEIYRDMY

PPARβ = target: T2, PPARβ (Homo sapiens, UniProt Q03181); assay: as above
T2 construct: gene PPARD
T2 sequence (Q03181 171-441 limits assumed): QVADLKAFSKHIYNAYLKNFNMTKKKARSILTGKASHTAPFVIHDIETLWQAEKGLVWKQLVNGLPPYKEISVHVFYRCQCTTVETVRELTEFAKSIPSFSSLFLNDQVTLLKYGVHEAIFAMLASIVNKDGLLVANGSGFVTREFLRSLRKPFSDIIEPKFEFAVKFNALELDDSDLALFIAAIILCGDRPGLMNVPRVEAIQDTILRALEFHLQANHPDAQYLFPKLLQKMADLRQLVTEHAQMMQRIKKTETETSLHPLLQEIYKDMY

PPARγ = target: T3, PPARγ (Homo sapiens, UniProt P37231); assay: biochemical; format: binding
T3 construct: gene PPARG
T3 sequence (P37231 232-505 limits assumed): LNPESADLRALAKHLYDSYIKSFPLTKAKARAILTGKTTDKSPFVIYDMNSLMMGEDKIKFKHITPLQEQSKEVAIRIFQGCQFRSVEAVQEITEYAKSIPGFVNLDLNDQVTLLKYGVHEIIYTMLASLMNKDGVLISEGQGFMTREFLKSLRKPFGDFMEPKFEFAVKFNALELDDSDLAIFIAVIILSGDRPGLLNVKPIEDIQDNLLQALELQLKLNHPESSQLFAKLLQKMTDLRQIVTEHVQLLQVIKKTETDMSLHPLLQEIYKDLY

CCCCCCCC/C=C\CCCCCCCC(N)=O [ODA, (Z)-octadec-9-enamide]
LanthaScreen TR-FRET competitive binding assay; displacement incomplete at 100 μ (PPARα): ODA evoked concentration-dependent displacement of fluorescent ligand from each receptor binding site, displacement at PPARα and PPARβ was incomplete
LanthaScreen TR-FRET competitive binding assay; displacement incomplete at 100 μ (PPARβ): ODA evoked concentration-dependent displacement of fluorescent ligand from each receptor binding site, displacement at PPARα and PPARβ was incomplete
IC50 (PPARγ): ~38 µM
